Patent publication US8710091B2, “Imidazolidine-2,4-dione derivatives, and use thereof as a cancer drug” (Ipsen Pharma S.A.S., priority 2009, dated 2014)

Assays:
DU145 cells = assay: Antiproliferative activity on DU-145 in complete medium (WST-1); format: cell-based; conditions: Homo sapiens, 144 h incubation, read-out: IC50 on the DU145 cells in culture (concentration inhibiting cell proliferation by 50%)
Description: The anti-proliferative activity of the compounds of the present invention is determined on DU-145 in complete medium.
Maintenance of the DU-145 line is carried out in DMEM, 10% of foetal calf serum, 2 mM of glutamine, 100 U/ml of penicillin, 0.1 mg/ml of streptomycin. • Seeding the plates: • The DU145 line is seeded at 400 or 800 cells/well in 90 μl of DMEM complete medium in 96-well plates (TPP). • Treatment of the cells: 24 h after the seeding, the cells are treated with 10 μl/well of compound diluted in the culture medium. Experiments showing the dose-effect of the compound are carried out on a scale of 1 nM to 100 μM. The concentrations used are the following: 1 nM/10/30/100/300/1000/3000/10,000/100,000 nM. The cells are incubated for 144 h at 37° C., 5% CO2. • Reading: On D6, 10 μL, of cell proliferation reagent WST-1 (Roche ref 1644807) is added to each well. After incubation for 2 to 4 hours at 37° C., 5% CO2, the absorbance at 450 nm is measured by spectrophotometry (Envision, Perkin Elmer). • Results: The experiments are carried out in duplicate and the best compounds are tested twice. […] 4. Measurement of the Disappearance of the Androgen Receptor

LNCaP cells = assay: Anti-proliferative activity on LNCaP in complete medium (WST-1); format: cell-based; conditions: Homo sapiens, 144 h, 144 h incubation, read-out: IC50 on the LNCaP cells in culture (concentration inhibiting cell proliferation by 50%)
Description: The anti-proliferative activity of the compounds of the present invention is determined on LNCaP in complete medium by applying the following experimental procedure:
The LNCaP cell type (ATCC, 1740) originating from a prostate carcinoma expressing the androgen receptor, this line is hormone-dependent.
Maintenance of the LNCaP line is carried out in complete culture medium: RPMI, 10% of foetal calf serum, 2 mM glutamine, 100 U/ml penicillin, 0.1 mg/ml of streptomycin and 0.01M HEPES, 1 mM sodium pyruvate, 40% of D-glucose. • Seeding the plates:
The LNCaP line is seeded at 20,000 cells/well in 90 μl of complete medium in 96-well plates coated with poly-D-lysine (Biocoat, Costar). • Treatment of the cells: 24 h after the seeding, the cells are treated with 10 μl/well of compound diluted in the culture medium. Experiments of the effect of doses of the compound are carried out on a scale of 1 nM to 100 µM. The concentrations used are the following: 1 nM/10/30/100/300/1000/3000/10,000/100,000 nM. Testosterone (SIGMA T1500) is used as a reference and tested at the same concentrations. The cells are incubated for 144 h at 37° C., 5% CO2. • Reading: On D6, 10 μL of the “WST-1 cell proliferation” reagent (Roche ref 1644807) is added to each well. After incubation for 2 hours at 37° C., 5% CO2, the absorbance at 450 nm is measured by spectrophotometry (Envision, Perkin Elmer). • Results: The experiments are carried out in duplicate and the best compounds are tested twice. […] 2. Antiproliferative Activity on LNCaP in Medium without Steroids: […]

IC50 (DU145 cells) [µM] | IC50 (LNCaP cells) [µM] | SMILES
> 10 | < 2 | CC1(C)C(=O)N(c2ccc(C(N)=O)c(C(F)(F)F)c2)C(=O)N1CCCCCCCCC[S+]([O-])CCCC(F)(F)C(F)(F)F (centres unmarked) [Example 22, 4-(4,4-dimethyl-2,5-dioxo-3-{9-[(4,4,5,5,5-pentafluoropentyl)sulphinyl]nonyl}imidazolidin-1-yl)-2-(trifluoromethyl)benzamide]
> 10 |  | CC1(C)C(=O)N(c2ccc([N+](=O)[O-])cc2C(F)(F)F)C(=O)N1CCCCCCCCC[S+]([O-])CCCC(F)(F)C(F)(F)F (centres unmarked) [Example 35, 5,5-dimethyl-3-[4-nitro-2-(trifluoromethyl)phenyl]-1-{9-[(4,4,5,5,5-pentafluoropentyl)sulphinyl]nonyl}imidazolidine-2,4-dione]
> 10 |  | Cc1cc(N2C(=O)N(CCCCCCCCC[S+]([O-])CCCC(F)(F)C(F)(F)F)C(C)(C)C2=O)ccc1N (centres unmarked) [Example 26, 3-(4-amino-3-methylphenyl)-5,5-dimethyl-1-{9-[(4,4,5,5,5-pentafluoropentyl)sulphinyl]nonyl}imidazolidine-2,4-dione]
> 10 | < 2 | CC1(C)C(=O)N(c2ccc([N+](=O)[O-])c(C(F)(F)F)c2)C(=O)N1CCOCCOCC[S+]([O-])CCCC(F)(F)C(F)(F)F (centres unmarked) [Example 37, 5,5-dimethyl-3-[4-nitro-3-(trifluoromethyl)phenyl]-1-[2-(2-{2-[(4,4,5,5,5-pentafluoropentyl)sulphinyl]ethoxy}ethoxy)ethyl]imidazolidine-2,4-dione]
> 10 | < 2 | Cc1cc(N2C(=O)N(CCCCCCCCCSCCCC(F)(F)C(F)(F)F)C(C)(C)C2=O)ccc1NS(N)(=O)=O [Example 30, N-[4-(4,4-dimethyl-2,5-dioxo-3-{9-[(4,4,5,5,5-pentafluoropentyl)sulphanyl]nonyl}imidazolidin-1-yl)-2-methylphenyl]sulphamide]
> 10 |  | CC1(C)C(=O)N(c2ccc([N+](=O)[O-])c(C(F)(F)F)c2)C(=O)N1CCCCCCCCCCSCCCC(F)(F)C(F)(F)F [Example 8, 5,5-dimethyl-3-[4-nitro-3-(trifluoromethyl)phenyl]-1-{10-[(4,4,5,5,5-pentafluoropentyl)thio]decyl}imidazolidine-2,4-dione]
> 10 |  | CC(=O)Nc1ccc(N2C(=O)N(CCOCCOCCSCCCC(F)(F)C(F)(F)F)C(C)(C)C2=O)cc1C(F)(F)F [Example 38, N-[4-{4,4-dimethyl-2,5-dioxo-3-[2-(2-{2-[(4,4,5,5,5-pentafluoropentyl)sulphanyl]ethoxy}ethoxy)ethyl]imidazolidin-1-yl}-2-(trifluoromethyl)phenyl]acetamide]
> 10 |  | CC1(C)C(=O)N(c2ccc([N+](=O)[O-])c(C(F)(F)F)c2)C(=O)N1CCCCCCCCC/S(CCCC(F)(F)C(F)(F)F)=N/C(=O)C(F)(F)F (centres unmarked) [Example 44, N-[(1Z)-(9-{5,5-dimethyl-3-[4-nitro-3-(trifluoromethyl)phenyl]-2,4-dioxoimidazolidin-1-yl}nonyl)(4,4,5,5,5-pentafluoropentyl)-λ^4-sulphanylidene]-2,2,2-trifluoroacetamide]
> 10 | < 2 | O=C1N(c2ccc([N+](=O)[O-])c(C(F)(F)F)c2)C(=O)C2(CCC2)N1CCCCCCCCC[S+]([O-])CCCC(F)(F)C(F)(F)F (centres unmarked) [Example 34, 7-[4-nitro-3-(trifluoromethyl)phenyl]-5-{9-[(4,4,5,5,5-pentafluoropentyl)sulphinyl]nonyl}-5,7-diazaspiro[3.4]octane-6,8-dione]
> 10 |  | CC1(C)C(=O)N(c2ccc([N+](=O)[O-])c(C(F)(F)F)c2)C(=O)N1CCOCCOCCSCCCC(F)(F)C(F)(F)F [Example 36, 5,5-dimethyl-3-[4-nitro-3-(trifluoromethyl)phenyl]-1-[2-(2-{2-[(4,4,5,5,5-pentafluoropentyl)sulphanyl]ethoxy}ethoxy)ethyl]imidazolidine-2,4-dione]
 | < 2 | CC1(C)C(=O)N(c2ccc([N+](=O)[O-])c(C(F)(F)F)c2)C(=O)N1CCCCCCCCCS(=N)(=O)CCCC(F)(F)C(F)(F)F (stereo not drawn) [Example 46, 5,5-dimethyl-3-[4-nitro-3-(trifluoromethyl)phenyl]-1-{9-[S-(4,4,5,5,5-pentafluoropentyl)sulphonimidoyl]nonyl}imidazolidine-2,4-dione]
> 10 |  | CC(=O)Nc1ccc(N2C(=O)N(CCOCCOCC[S+]([O-])CCCC(F)(F)C(F)(F)F)C(C)(C)C2=O)cc1C(F)(F)F (centres unmarked) [Example 39, N-[4-{4,4-dimethyl-2,5-dioxo-3-[2-(2-{2-[(4,4,5,5,5-pentafluoropentyl)sulphinyl]ethoxy}ethoxy)ethyl]imidazolidin-1-yl}-2-(trifluoromethyl)phenyl]acetamide]
> 10 |  | CC1(C)C(=O)N(c2ccc(N)c(C(F)(F)F)c2)C(=O)N1CCCCCCCCCSCCCC(F)(F)C(F)(F)F [Example 16, 3-[4-amino-3-(trifluoromethyl)phenyl]-5,5-dimethyl-1-{9-[(4,4,5,5,5-pentafluoropentyl)thio]nonyl}imidazolidine-2,4-dione]
> 10 | < 2 | CN(C)CC(=O)Nc1ccc(N2C(=O)N(CCCCCCCCCSCCCC(F)(F)C(F)(F)F)C(C)(C)C2=O)cc1C(F)(F)F [Example 42, N-[4-(4,4-dimethyl-2,5-dioxo-3-{9-[(4,4,5,5,5-pentafluoropentyl)sulphanyl]nonyl}imidazolidin-1-yl)-2-(trifluoromethyl)phenyl]-N^2,N^2-dimethylglycinamide]
> 10 |  | CC1(C)C(=O)N(c2ccc([N+](=O)[O-])c(C(F)(F)F)c2)C(=O)N1CCCCCCCCCC[S+]([O-])CCCC(F)(F)C(F)(F)F (centres unmarked) [Example 9, 5,5-dimethyl-3-[4-nitro-3-(trifluoromethyl)phenyl]-1-{10-[(4,4,5,5,5-pentafluoropentyl)sulphinyl]decyl}imidazolidine-2,4-dione]
> 10 |  | CC1(C)C(=O)N(c2ccc([N+](=O)[O-])c(C(F)(F)F)c2)C(=O)N1CCCCCCCCC[S+]([O-])CCCC(F)(F)C(F)(F)F (centres unmarked) [Example 2, 5,5-dimethyl-3-[4-nitro-3-(trifluoromethyl)phenyl]-1-{9-[(4,4,5,5,5-pentafluoropentyl)sulphinyl]nonyl}imidazolidine-2,4-dione]

SMILES | IC50 (DU145 cells) [µM] | IC50 (LNCaP cells) [µM]
CC1(C)C(=O)N(c2ccc([N+](=O)[O-])c(C(F)(F)F)c2)C(=O)N1CCCCCCCCC[S+]([O-])CCC(F)(F)C(F)(F)C(F)(F)C(F)(F)F (centres unmarked) [Example 15, 5,5-dimethyl-3-[4-nitro-3-(trifluoromethyl)phenyl]-1-{9-[(3,3,4,4,5,5,6,6,6-nonafluorohexyl)sulphinyl]nonyl}imidazolidine-2,4-dione] | > 10 | < 2
CC1(C)C(=O)N(c2ccc([N+](=O)[O-])c(C(F)(F)F)c2)C(=O)N1CCCCCCCCCSCCC(F)(F)C(F)(F)C(F)(F)C(F)(F)F [Example 14, 5,5-dimethyl-3-[4-nitro-3-(trifluoromethyl)phenyl]-1-{9-[(3,3,4,4,5,5,6,6,6-nonafluorohexyl)thio]nonyl}imidazolidine-2,4-dione] | > 10 | 
CC1(C)C(=O)N(c2ccc(C#N)c(C(F)(F)F)c2)C(=O)N1CCCCCCCCC[S+]([O-])CCCC(F)(F)C(F)(F)F (centres unmarked) [Example 20, 4-(4,4-dimethyl-2,5-dioxo-3-{9-[(4,4,5,5,5-pentafluoropentyl)sulphinyl]nonyl}imidazolidin-1-yl)-2-(trifluoromethyl)benzonitrile] | > 10 | < 2
